# Data published in US9187467B2, “2-phenyl benzothiazole linked imidazole compounds as potential anticancer agents and process for the preparation thereof” (Council of Scientific and Industrial Research, priority 2012, dated 2015).
# Legend:
# [1] = system: sixty human cancer cell lines; assay: SRB anticancer assay, all cell lines; format: cell-based; conditions: all the cell lines; exposure at least 48 h
# [2] = system: K562 (Leukemia) cells; assay: Cell cycle distribution by flow cytometry; format: cell-based
# Description: (§1) In order to investigate the mechanism underlying the anti-proliferative effect of the compounds the cell cycle distribution was analyzed in K562 (Leukemia) and MCF-7 (Breast carcinoma) cell lines by flow cytometry. Compounds CA-4, 21a, 21d, 4c, 6d, 6e, 6f, 7d, 7h and 7j have shown 1.72%, 14%, 12%, 14%, 12%, 14%, 14%, 16%, 16% &12% in K562 cells and 49.63%, 21%, 20%, 18%, 21%, 21%, 21%, 24%, 23% and 23% in MCF-7 cell line respectively. […] Thus compound 7d was considered for further studies (FIG. 1).
# [3] = system: KM12; assay: SRB anticancer assay, colon; format: cell-based, human; conditions: Homo sapiens, KM12, 48 h
# [4] = system: OVCAR-8; assay: SRB anticancer assay, ovarian; format: cell-based, human; design: Log10GI50: unit not given here; conditions: for GI50: Homo sapiens, OVCAR-8, 48 h
# [5] = system: BT-549; assay: SRB anticancer assay, breast; format: cell-based, human; design: Log10GI50: unit not given here; conditions: for GI50: Homo sapiens, BT-549, 48 h
# [6] = system: HT29; assay: SRB anticancer assay, colon; format: cell-based, human; conditions: Homo sapiens, HT-29; HT29, 48 h
# [7] = system: OVCAR-5; assay: SRB anticancer assay, ovarian; format: cell-based, human; conditions: Homo sapiens, OVCAR-5, 48 h
# [8] = system: MCF-7 (Breast carcinoma) cells; assay: Cell cycle distribution by flow cytometry (FACS); format: cell-based; conditions: MCF-7 cells, 2 μM, 24h
# Description: FIG. 1 represents FACS analysis of cell cycle distribution of MCF-7 cells after treatment with compounds CA-4, 21a, 21d, 4c, 6d, 6e, 6f, 7d, 7h and 7j at 2 μM concentration for 24h and control cells are the cells treated with DMSO (0.25%).
# as §1
# [9] = system: HL-60 (TB); assay: SRB anticancer assay, leukemia; format: cell-based, human; design: Log10GI50: unit not given here; conditions: for GI50: Homo sapiens, HL-60, 48 h
# [10] = system: NCI-H522; assay: SRB anticancer assay, non-small lung; format: cell-based, human; design: Log10GI50: unit not given here; conditions: for GI50: Homo sapiens, NCI-H522, 48 h
# [11] = system: CCRF-CEM; assay: SRB anticancer assay, leukemia; format: cell-based, human; design: Log10GI50: unit not given here; conditions: for GI50: Homo sapiens, 48 h
# [12] = system: K-562; assay: SRB anticancer assay, leukemia; format: cell-based, human; design: Log10GI50: unit not given here; conditions: for GI50: Homo sapiens, K562, K-562, 48 h
# [13] = system: NCI/ADR-RES; assay: SRB anticancer assay, ovarian; format: cell-based, human; design: Log10GI50: unit not given here; conditions: for GI50: Homo sapiens, NCI/ADR-RES, 48 h; for Log10GI50: present compounds
# [14] = system: SK-MEL-28; assay: SRB anticancer assay, melanoma; format: cell-based, human; design: Log10GI50: unit not given here; conditions: for GI50: Homo sapiens, SK-MEL-28, 48 h
# [15] = system: SN12C; assay: SRB anticancer assay, renal; format: cell-based, human; design: Log10GI50: unit not given here; conditions: for GI50: Homo sapiens, 48 h
# [16] = system: SNB-19; assay: SRB anticancer assay, CNS; format: cell-based, human; design: Log10GI50: unit not given here; conditions: for GI50: Homo sapiens, SNB-19, 48 h
# [17] = system: PC-3; assay: SRB anticancer assay, prostate; format: cell-based, human; design: Log10GI50: unit not given here; conditions: for GI50: Homo sapiens, PC-3, 48 h
# [18] = system: HS 578T; assay: SRB anticancer assay, breast; format: cell-based, human; design: Log10GI50: unit not given here; conditions: for GI50: Homo sapiens, 48 h
# [19] = system: U251; assay: SRB anticancer assay, CNS; format: cell-based, human; design: Log10GI50: unit not given here; conditions: for GI50: Homo sapiens, U-251, U251, 48 h
# [20] = system: SK-MEL-2; assay: SRB anticancer assay, melanoma; format: cell-based, human; conditions: for GI50: Homo sapiens, SK-MEL-2, 48 h
# [21] = system: SK-OV-3; assay: SRB anticancer assay, ovarian; format: cell-based, human; conditions: Homo sapiens, SK-OV-3, 48 h
# [22] = system: SR; assay: SRB anticancer assay, leukemia; format: cell-based, human; conditions: Homo sapiens, 48 h
# [23] = system: 786-0; assay: SRB anticancer assay, renal; format: cell-based, human; conditions: for GI50: Homo sapiens, 786-0, 48 h
# [24] = system: NCI-H460; assay: SRB anticancer assay, non-small lung; format: cell-based, human; conditions: Homo sapiens, NCI-H460, 48 h
# [25] = system: UACC-62; assay: SRB anticancer assay, melanoma; format: cell-based, human; conditions: for GI50: Homo sapiens, UACC-62, 48 h
# [26] = system: ACHN; assay: SRB anticancer assay, renal; format: cell-based, human; design: Log10GI50: unit not given here; conditions: for GI50: Homo sapiens, 48 h
# [27] = system: SF-539; assay: SRB anticancer assay, CNS; format: cell-based, human; design: Log10GI50: unit not given here; conditions: for GI50: Homo sapiens, SF-539, 48 h
# [28] = system: SNB-75; assay: SRB anticancer assay, CNS; format: cell-based, human; design: Log10GI50: unit not given here; conditions: for GI50: Homo sapiens, SNB-75, 48 h
# [29] = system: IGROV1; assay: SRB anticancer assay, ovarian; format: cell-based, human; conditions: Homo sapiens, IGROV-1; IGROV1, 48 h
# [30] = system: UACC-257; assay: SRB anticancer assay, melanoma; format: cell-based, human; conditions: for GI50: Homo sapiens, UACC-257, 48 h
# [31] = system: NCI-H322M; assay: SRB anticancer assay, non-small lung; format: cell-based, human; conditions: Homo sapiens, 48 h
# [32] = system: RXF 393; assay: SRB anticancer assay, renal; format: cell-based, human; design: Log10GI50: unit not given here; conditions: for GI50: Homo sapiens, RXF 393, 48 h
compound,measurement,setting,value
"COc1cc(OC)c2sc(-c3ccc(-n4cncc4-c4ccc(OC)c(OC)c4)cc3)nc2c1 [Compound 6e, 2-(4-(5-(3,4-Dimethoxyphenyl)-1H-imidazol-1-yl)phenyl)-5,7-dimethoxybenzo[d]thiazole]","mean graph midpoint values (MG_MID) of log10LC50, range",[1],−4.00
same,cells in G2/M phase,[2],14%
same,GI50,[3],6.8 µM
same,GI50,[4],21.2 µM
same,GI50,[5],3.78 µM
same,GI50,[6],7.13 µM
same,GI50,[7],> 100 µM
same,cells in G2/M phase,[8],21%
same,GI50,[9],3.09 µM
same,GI50,[10],5.26 µM
same,GI50,[11],> 100 µM
same,GI50,[12],5.88 µM
same,GI50,[13],> 100 µM
same,GI50,[14],> 100 µM
same,GI50,[15],> 100 µM
same,GI50,[16],> 100 µM
same,GI50,[17],3.66 µM
same,GI50,[18],9.12 µM
same,GI50,[19],9.19 µM
same,GI50,[20],41.4 µM
same,GI50,[21],> 100 µM
same,GI50,[22],3.03 µM
same,GI50,[23],> 100 µM
same,GI50,[24],6.06 µM
same,GI50,[25],8.14 µM
same,GI50,[26],> 100 µM
same,GI50,[27],> 100 µM
same,GI50,[28],7.21 µM
same,GI50,[29],56.1 µM
same,GI50,[30],> 100 µM
same,GI50,[31],> 100 µM
"COc1cc(OC)c2sc(-c3ccc(-n4cncc4-c4cc(OC)c(OC)c(OC)c4)cc3)nc2c1 [Compound 6f, 5,7-Dimethoxy-2-(4-(5-(3,4,5-trimethoxyphenyl)-1H-imidazol-1-yl)phenyl)benzo[d]thiazole]","mean graph midpoint values (MG_MID) of log10LC50, range",[1],−4.00
same,"mean graph midpoint values (MG_MID) of log10TGI, range",[1],−4.00
same,cells in G2/M phase,[2],14%
same,GI50,[3],4.62 µM
same,GI50,[4],> 100 µM
same,GI50,[5],3.35 µM
same,GI50,[6],4.88 µM
same,GI50,[7],> 100 µM
same,cells in G2/M phase,[8],21%
same,GI50,[9],3.3 µM
same,GI50,[10],3.27 µM
same,GI50,[11],3.95 µM
same,GI50,[12],3.83 µM
same,GI50,[13],5.65 µM
same,GI50,[15],> 100 µM
same,GI50,[16],> 100 µM
same,GI50,[17],2.54 µM
same,GI50,[18],5.23 µM
same,GI50,[19],4.15 µM
same,GI50,[20],6.09 µM
same,GI50,[21],> 100 µM
same,GI50,[22],3.24 µM
same,GI50,[32],2.8 µM
same,GI50,[23],7.38 µM
same,GI50,[24],4.67 µM
same,GI50,[25],4.14 µM
same,GI50,[26],6.67 µM
same,GI50,[27],8.59 µM
same,GI50,[28],6.47 µM
same,GI50,[29],5.87 µM
same,GI50,[30],> 100 µM
same,GI50,[31],> 100 µM
"COc1ccc(-c2cncn2-c2ccc(-c3nc4cc(OC)c(OC)c(OC)c4s3)cc2)cc1N [Compound 7j, 2-Methoxy-5-(1-(4-(5,6,7-trimethoxybenzo[d]thiazol-2-yl)phenyl)-1H-imidazol-5-yl)benzeneamine]","mean graph midpoint values (MG_MID) of log10LC50, range",[1],−4.00
same,cells in G2/M phase,[2],12%
same,GI50,[3],3.8 µM
same,GI50,[4],6.19 µM
same,Log10GI50,"[4]; OVCAR-8, present compounds",−5.21
same,Log10GI50,"[5]; BT-549, present compounds",−5.21
same,GI50,[5],3.02 µM
same,GI50,[6],3.87 µM
same,GI50,[7],> 100 µM
same,cells in G2/M phase,[8],23%
same,Log10GI50,"[9]; HL-60(TB), present compounds",−5.66
same,GI50,[9],2.2 µM
same,GI50,[10],3.37 µM
same,Log10GI50,"[10]; NCI-H522, present compounds",−5.47
same,GI50,[11],3.41 µM
same,Log10GI50,[11]; present compounds,−5.47
same,GI50,[12],3.38 µM
same,Log10GI50,"[12]; K-562, present compounds",−5.47
same,GI50,[13],3.12 µM
same,Log10GI50,[13]; NCI/ADR-RES (row head NCI/ADR-),−5.51
same,Log10GI50,[13]; listed as head printed RES (second line of NCI/ADR-RES),>−4.0
same,GI50,[14],13.7 µM
same,Log10GI50,"[14]; SK-MEL-28, present compounds",−4.86
same,GI50,[15],9.44 µM
same,Log10GI50,[15]; present compounds,−5.03
same,GI50,[16],> 100 µM
same,Log10GI50,"[16]; SNB-19, present compounds",>−4.0
same,GI50,[17],2.59 µM
same,Log10GI50,"[17]; PC-3, present compounds",−5.59
same,GI50,[18],6.21 µM
same,Log10GI50,[18]; present compounds,−4.55
same,GI50,[19],6 µM
same,Log10GI50,"[19]; U251, present compounds",−5.22
same,GI50,[20],6.04 µM
same,Log10GI50,"[20]; SK-MEL-2, present compounds",−5.22 M
same,GI50,[21],> 100 µM
same,GI50,[22],3.43 µM
same,GI50,[32],5.98 µM
same,Log10GI50,"[32]; RXF 393, present compounds",−5.22
same,Log10GI50,"[23]; 786-0, present compounds",−5.24 log10 M
same,GI50,[23],5.73 µM
same,GI50,[24],4.69 µM
same,GI50,[25],> 100 µM
same,Log10GI50,"[25]; UACC-62, present compounds",−5.04 log10 M
same,GI50,[26],5.59 µM
same,Log10GI50,[26]; present compounds,−5.25
same,GI50,[27],> 100 µM
same,Log10GI50,"[27]; SF-539, present compounds",>−4.0
same,GI50,[28],52.3 µM
same,Log10GI50,"[28]; SNB-75, present compounds",−4.28
same,GI50,[29],4.9 µM
same,GI50,[30],> 100 µM
same,Log10GI50,"[30]; UACC-257, present compounds",>−4.0 log10(M)
same,GI50,[31],25.7 µM
